Results as given in publication PMC4741889, “Ligand-based chemoinformatic discovery of a novel small molecule inhibitor targeting CDC25 dual specificity phosphatases and displaying in vitro efficacy against melanoma cells” (Oncotarget, 2015).

Assays:
caspase-3 activity [1] = assay: Caspase-3 enzymatic activity in A2058 cells; type: cell-based, human; settings: A2058, 100 μM
Source text: (§1) PI incorporation followed by flow cytometric analysis was used to detect the effect of 7 on the number of nuclei with a sub-diploid content, a typical hallmark of apoptosis. A time-dependent increase of apoptosis was evident in both A2058 and SAN cells and in particular, the effect of 7 on cell death program was already evident after 24-h treatment (Figure 7). […] To further investigate on the capacity of 7 to induce apoptosis, the enzymatic activity of caspase-3, the final effector of apoptotic program, was monitored.
(§2) To estimate caspase-3 and caspase-9 activity during the treatment with compound 7, the respective enzymatic activities were measured by using caspase-3 and -9 fluorimetric assay kits, according to the manufacturer's protocol, essentially as previously described. Briefly, cells were seeded into 75 cm^2 plates (2 × 10^6 cells/plate) for 24 h at 37°C and then treated with 100 μM 7 or 0.5% DMSO. At the end of each incubation, cells were collected, washed with PBS, and finally lysed at 4°C in the cell lysis buffer. Cell lysates were incubated with 50 μM DEVD-AFC or LEHD-AFC substrates at 37°C for 2 h, to detect caspase-3 or caspase-9 activity, respectively, using a Cary Eclipse fluorescence spectrophotometer (Varian). Excitation and emission wavelengths were set at 400 nm and 505 nm, respectively; both excitation and emission slits were set at 10 nm.

CDC25C = target: T1, CDC25C (Homo sapiens, UniProt P30307); assay: Ki from OMFP hydrolysis kinetics (Lineweaver-Burk), CDC25C; type: biochemical; settings: 40 nM CDC25C, 1–25 μM OMFP; mean ± S.E.; read-out: Ki CDC25C
T1 construct: Recombinant forms of the catalytic domains of CDC25A, -B and -C were obtained through the vectors pET28a-CDC25A-cd, pET28a-CDC25B-cd and pET28a-CDC25C-cd; made in house
T1 sequence (P30307 321-428 limits assumed): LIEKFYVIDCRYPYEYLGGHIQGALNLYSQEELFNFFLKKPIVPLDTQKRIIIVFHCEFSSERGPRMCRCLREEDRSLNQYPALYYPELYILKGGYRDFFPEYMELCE
Description: To measure the inhibition constant (Ki) of the recombinant forms of CDC25A, -B and -C towards the various inhibitors, the affinity of the different forms of CDC25 towards OMFP was measured either in the absence or in the presence of fixed concentrations of the various inhibitors. The reaction mixture contained 20 nM CDC25A, or 10 nM CDC25B, or 40 nM CDC25C, and different concentrations of the various inhibitors in 500 μL final volume of 20 mM Tris-HCl, pH 7.8, 1 mM DTT. DMSO was used as vehicle control. […] The corresponding Lineweaver-Burk plots allowed the calculation of the KM for OMFP and of the Vmax of OMFP hydrolysis, expressed as a.u./minmax. […] The Ki values were obtained from the decrease of a.u./minmax in the presence of the inhibitor, according to the equation a.u./mimmax’ = a.u./mimmax/{1 + ([I]/Ki)}, where a.u./mimmax’ represents the Vmax measured in the presence of the concentration [I] of the inhibitor. The Ki values were obtained from at least three independent experiments and reported as mean ± S.E.

p53 protein levels = assay: Western blotting of p53 protein levels in SAN cells; type: cell-based, human; settings: 100 μM, 16 h (not shown)
[2] = system: Bcl-2 and Bax protein levels; assay: Western blotting of Bcl-2 and Bax protein levels in A2058 cells; type: cell-based, human; settings: A2058, 100 μM
Description: Mitochondria represent the primary source of ROS, as well the target of ROS action, and therefore, compound 7 could affect their functionality in melanoma cells. […] Proteins belonging to the B-cell lymphoma-2 (Bcl-2) family are involved in the modulation of the mitochondrial functionality. Therefore, we have evaluated the levels of the anti-apoptotic protein Bcl-2, as well as that of the pro-apoptotic Bcl-2-associated X protein (Bax), after incubation with 7 (Figure 10B). […] To further investigate the occurrence of a mitochondrial-mediated apoptosis induced by 7, the caspase-9 activity was assayed. […] The effect of compound 7 was investigated also in SAN cells and the overall results were similar to those observed in A2058 (Supplementary Figure S6).
A2058 cells were seeded into 6-well-plates (3 × 10^5 cells/plate) for 24 h at 37°C and then treated at different times with 100 μM compound 7 or 0.5% DMSO. After treatment, cells were harvested, washed with PBS and then lysed in ice-cold modified radio immunoprecipitation assay (RIPA) buffer (50 mM Tris-HCl, pH 7.4, 150 mM NaCl, 1% Nonidet P-40, 0.25% sodium deoxycholate, 1 mM Na3VO4 and 1 mM NaF), supplemented with protease inhibitors and incubated for 30 min on ice. The supernatant obtained after centrifugation at 12,000 rpm for 30 min at 4°C constituted the total protein extract. The protein concentration was determined by the method of Bradford, using bovine serum albumin (BSA) as standard. Equal amounts of total protein extracts were used for Western blot analysis. […] The filter was incubated with the specific primary antibody at 4°C overnight and then with the secondary antibody at room temperature for 1 h. Membranes were then analysed by an enhanced chemiluminescence reaction, using Super Signal West Pico kit (Pierce) according to manufacturer's instruction; signals were visualized by autoradiography.

caspase-3 activity [3] = assay: Caspase-3 enzymatic activity in SAN cells; type: cell-based, human; settings: 100 μM
Source text: as §1, §2

CDC25C protein levels = assay: Western blotting of CDC25C protein levels in A2058 cells; type: cell-based, human; settings: A2058, 100 μM, from 4 h up to 16 h
Description: To better investigate the effect of this inhibitor at the molecular level, we evaluated if the treatment of A2058 cells with 7 affected also the protein levels of the three CDC25 forms. […] On the other hand, the protein levels of CDC25B were unaffected by treatment of A2058 cells with 7 up to 16 h.
A2058 cells were seeded into 6-well-plates (3 × 10^5 cells/plate) for 24 h at 37°C and then treated at different times with 100 μM compound 7 or 0.5% DMSO. After treatment, cells were harvested, washed with PBS and then lysed in ice-cold modified radio immunoprecipitation assay (RIPA) buffer (50 mM Tris-HCl, pH 7.4, 150 mM NaCl, 1% Nonidet P-40, 0.25% sodium deoxycholate, 1 mM Na3VO4 and 1 mM NaF), supplemented with protease inhibitors and incubated for 30 min on ice. The supernatant obtained after centrifugation at 12,000 rpm for 30 min at 4°C constituted the total protein extract. The protein concentration was determined by the method of Bradford, using bovine serum albumin (BSA) as standard. Equal amounts of total protein extracts were used for Western blot analysis. […] Membranes were then analysed by an enhanced chemiluminescence reaction, using Super Signal West Pico kit (Pierce) according to manufacturer's instruction; signals were visualized by autoradiography.

SAN cells = assay: MTT cell growth rate, SAN melanoma cells; type: cell-based, human; settings: 100 μM, 48 h, MTT
Description: The human melanoma cell line A2058, kindly provided by CEINGE (Naples, Italy), and SAN cells were derived from lymph nodal metastases and grown in DMEM and RPMI 1640, respectively, supplemented with 10% FBS, 2 mM L-glutamine, 100 IU/mL penicillin G, and 100 μg/mL streptomycin in humidified incubator at 37°C under 5% CO2 atmosphere. All cells were split and seeded every three days and used during the exponential phase of growth. Cell treatments were always carried after 24 h from plating.
The MTT assay was used to detect cell proliferation essentially as previously described. Briefly, A2058 and SAN cells were plated in 96-well microtiter plates (100 μL/well) at 4000 and 6000 cells/well, respectively. After 24-h seeding, cells were treated with the selected compounds added at 25, 50 or 100 μM concentration, or with 0.5% (v/v) DMSO as a vehicle control. After 24-h, 48-h or 72-h treatment, and upon the addition of 10 μL of MTT solution in the dark, the plate was incubated for 3 h at 37°C under CO2 atmosphere. After medium aspiration and solubilization of formazan crystals, absorbance was measured at 570 nm, using an ELISA plate reader (Bio-Rad, Milano, Italy).

Q: What does the source list for `O=C(O)C1CCCCC1c1c2ccc(=O)cc-2oc2cc(O)ccc12` (stereo not drawn) [Compound 7, 2-(6-hydroxy-3-oxo-3H-xanthen-9-yl)cyclohexanecarboxylic acid]?
A: caspase-3 enzymatic activity (caspase-3 activity [1]): significant increase of the enzymatic activity of caspase-3; Ki (CDC25C): 3.1 ± 0.22 µM; p53 protein level (p53 protein levels): higher level of this protein; Bcl-2/Bax ratio ([2]; 8 and 16 h): significant reduction; Bcl-2 protein level ([2]; 8 and 16 h): clear reduction of the Bcl-2 level after 8-h treatment; Bax protein level ([2]; 16 h): clear increase of Bax; caspase-3 enzymatic activity (caspase-3 activity [3]): significant increase of the enzymatic activity of caspase-3; CDC25C protein levels (CDC25C protein levels): progressive and significant reduction of CDC25C protein levels; cell growth rate (SAN cells): significant reduction of cell growth rate
